Assay [1] concerns the target T1, Isocitrate dehydrogenase [NADP], mitochondrial (Homo sapiens, UniProt P48735).
T1 sequence (P48735 whole entry): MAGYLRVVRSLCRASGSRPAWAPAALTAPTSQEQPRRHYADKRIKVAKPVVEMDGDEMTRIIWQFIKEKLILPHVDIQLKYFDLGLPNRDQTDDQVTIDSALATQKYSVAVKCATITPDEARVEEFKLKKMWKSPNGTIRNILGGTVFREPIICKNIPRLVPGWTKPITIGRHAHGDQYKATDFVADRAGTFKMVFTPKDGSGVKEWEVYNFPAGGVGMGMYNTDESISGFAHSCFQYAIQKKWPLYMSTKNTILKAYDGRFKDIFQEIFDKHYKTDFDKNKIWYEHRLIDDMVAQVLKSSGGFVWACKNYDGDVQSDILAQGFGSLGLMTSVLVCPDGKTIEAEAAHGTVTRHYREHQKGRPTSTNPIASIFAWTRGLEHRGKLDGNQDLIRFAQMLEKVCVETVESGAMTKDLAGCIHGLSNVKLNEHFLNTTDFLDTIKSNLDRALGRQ
As to the kind of experiment: Inhibition of wild type IDH2 (unknown origin) assessed as reduction in NADPH production using sodium(D)-isocitrate and NADP as substrate preincubated with enzyme for 15 mins followed by substrate addition by fluorescence based assay.

The target of assay [2] is Isocitrate dehydrogenase [NADP], mitochondrial (Homo sapiens, UniProt P48735, R172K). Kind of assay: Inhibition of IDH2 R172K mutant (unknown origin) assessed as reduction in NADPH consumption using alpha-ketoglutarate and NADPH as substrate preincubated with enzyme for 15 mins followed by substrate addition by fluorescence based assay.
Isocitrate dehydrogenase [NADP], mitochondrial (Homo sapiens, UniProt P48735, R172K), sequence (P48735 40-452 R172K limits assumed): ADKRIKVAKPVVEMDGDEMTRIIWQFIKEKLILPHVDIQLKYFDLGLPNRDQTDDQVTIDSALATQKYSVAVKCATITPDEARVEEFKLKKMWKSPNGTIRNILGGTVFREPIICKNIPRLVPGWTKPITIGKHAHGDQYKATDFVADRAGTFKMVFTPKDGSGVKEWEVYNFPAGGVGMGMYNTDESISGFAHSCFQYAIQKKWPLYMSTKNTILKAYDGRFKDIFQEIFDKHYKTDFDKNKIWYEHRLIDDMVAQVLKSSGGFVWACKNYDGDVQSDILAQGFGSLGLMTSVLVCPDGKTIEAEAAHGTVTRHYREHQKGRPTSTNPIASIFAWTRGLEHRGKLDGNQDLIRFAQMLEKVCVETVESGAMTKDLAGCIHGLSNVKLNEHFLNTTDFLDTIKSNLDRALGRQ
Assay [3] concerns the target Isocitrate dehydrogenase [NADP], mitochondrial (Homo sapiens, UniProt P48735, R140Q). As to the kind of experiment: Inhibition of IDH2 R140Q mutant (unknown origin) assessed as reduction in NADPH consumption using alpha-ketoglutarate and NADPH as substrate preincubated with enzyme for 15 mins followed by substrate addition by fluorescence based assay.

pIC50: −log10 of the molar value. Structures can show the parent of a compound that is named as a salt. Where only a bound is given, the exact number is not on record here.

By pIC50 is commonly meant the IC50 on a negative log10 scale, so that one unit is a factor of ten.

Isocitrate dehydrogenase [NADP], mitochondrial (Homo sapiens, UniProt P48735, R140Q), sequence (P48735 40-452 R140Q limits assumed): as the sequence (P48735 40-452 R172K limits assumed) above, with R101Q, K133R counted along it

As to `FC(F)(F)c1cccc(-c2nc3nc(n2)Nc2cc(Cl)cc(c2)CCCCOCCN3)n1`, the pIC50 in assay [1] is below 4.70; in assay [2], 6.35; in assay [3], 7.91.
The matching figures for `FC(F)(F)c1cc2cc(c1)OC/C=C\CCCNc1nc(nc(-c3cccc(C(F)(F)F)n3)n1)N2`: below 4.70, 7.30 and 7.76.
Regarding `CC1(C)CNc2nc(nc(-c3cccc(C(F)(F)F)n3)n2)Nc2cc(cc(C(F)(F)F)c2)C/C=C\CO1`, the figures for the pIC50 in assay [1] and in assay [3] were below 4.70 and 6.40, respectively.
Turning to `Cc1cc2cc(c1)Nc1nc(nc(-c3cccc(C(F)(F)F)n3)n1)NCCOCCCC2`, the results for the pIC50 in assay [1], in assay [2] and in assay [3] were below 4.70, 5.88 and 7.65, respectively.
`CC(C)(O)CNc1nc(Nc2ccnc(C(F)(F)F)c2)nc(-c2cccc(C(F)(F)F)n2)n1` [ENASIDENIB]: the pIC50 in assay [1] was below 4.70; in assay [2], 6.57; in assay [3], 7.44.
The like results for `CC1(C)CNc2nc(nc(-c3cccc(C(F)(F)F)n3)n2)Nc2cc(cc(C(F)(F)F)c2)OCCCO1` were, in that order, below 4.70, 7.56 and 7.10.
The like results for `CC1CNc2nc(nc(-c3cccc(C(F)(F)F)n3)n2)Nc2cc(cc(C(F)(F)F)c2)CCCCO1` (configuration not stated) were, in that order, below 4.70, 7.75 and 7.34.
The matching figures for `Fc1cc2cc(c1)Nc1nc(nc(-c3cccc(C(F)(F)F)n3)n1)NCCOC/C=C\C2`: below 4.70, 6.16 and 7.53.
Consider `CC(C)(O)CNc1nc(Nc2ccccc2)nc(-c2cccc(C(F)(F)F)n2)n1`, for which the pIC50 in assay [1] was below 4.70; in assay [2], 5.84; in assay [3], 7.01.
The like results for `O=C1OCCCCCNc2nc(nc(-c3cccc(C(F)(F)F)n3)n2)Nc2cc1cc(C(F)(F)F)c2` were, in that order, below 4.70, 6.50 and 6.98.
The matching figures for `Cc1cc2cc(c1)Nc1nc(nc(-c3cccc(C(F)(F)F)n3)n1)NCCOC/C=C\C2`: below 4.70, 6.08 and 7.42.
As to `FC(F)(F)c1cc2cc(c1)Nc1nc(nc(-c3cccc(C(F)(F)F)n3)n1)NCCCCCCC2`, the pIC50 was below 4.70 in assay [1], 7.52 in assay [2] and 7.70 in assay [3].
The matching figures for `FC(F)(F)c1cc2cc(c1)Nc1nc(nc(-c3cccc(C(F)(F)F)n3)n1)NCCCC/C=C/C2`: below 4.70, 7.33 and 7.42.
In the case of `FC(F)(F)c1cc2cc(c1)Nc1nc(nc(-c3cccc(C(F)(F)F)n3)n1)NCCCCC/C=C/C2`, the pIC50 in assay [1] was below 4.70; in assay [2] it was 7.03; in assay [3], 7.42.
The like results for `CC1(C)CCNc2nc(nc(-c3cccc(C(F)(F)F)n3)n2)Nc2cc(cc(C(F)(F)F)c2)CCCCO1` were, in that order, below 4.70, 6.34 and 6.74.
The matching figures for `FC(F)(F)c1cc2cc(c1)OCCCCCNc1nc(nc(-c3cccc(C(F)(F)F)n3)n1)N2`: below 4.70, 6.94 and 7.29.
`Fc1cc2cc(c1)Nc1nc(nc(-c3cccc(C(F)(F)F)n3)n1)NCCOCCCC2`: the values for the pIC50 in assay [1], in assay [2] and in assay [3] were below 4.70, 6.05 and 7.73, respectively.
The like results for `FC(F)(F)c1cccc(-c2nc3nc(n2)Nc2cc(Cl)cc(c2)C/C=C\COCCN3)n1` were, in that order, below 4.70, 6.38 and 7.44.
As to `CC(C)(O)CNc1nc(Nc2ccnc(C(F)(F)F)c2)nc(-c2cccc(C(F)(F)F)n2)n1` [ENASIDENIB MESYLATE], the pIC50 was 6.50 in assay [2] and 6.91 in assay [3].
For `CC1CNc2nc(nc(-c3cccc(C(F)(F)F)n3)n2)Nc2cc(cc(C(F)(F)F)c2)C/C=C\CO1` (configuration not stated), the pIC50 in assay [1] is below 4.70; in assay [3], 6.57.

Source of the values: ChEMBL document CHEMBL4706511, “Structure-based design, synthesis and bioactivity evaluation of macrocyclic inhibitors of mutant isocitrate dehydrogenase 2 (IDH2) displaying activity in acute myeloid leukemia cells” (Eur J Med Chem, 2020).
